One series has as its system SYP, PSD95 and GAP43. The experiment in a line: Western blot of synaptic-related proteins in APP/PS1 mice. Format: in vivo. Here is the method: After the behavioral experiment, the animals were anesthetized with an intraperitoneal injection of 3.5% chloral hydrate and cut off the heads quickly to take out the brains. The hippocampus and cortex of the brain were separated on ice, and then weighed and quickly frozen with liquid nitrogen, placed in a refrigerator at −80° C. for standby application.
The tissue lysate (5 μL PMSF protease inhibitor per mL of lysate) was added to the frozen brain tissue at a ratio of […] (6 mL/g tissue), and ultrasonically homogenized in an ice bath. After homogenization, the tissue homogenate was placed in crushed ice for 30 min, and then centrifuged at 12,000×g for 20 min at 4° C. The supernatant (about 200 μL) was taken and stored in a refrigerator at −80° C. for later use. A portion of the supernatant was taken for protein quantification.
According to the kit instruction, BCA working reagent was prepared by mixing reagent A with reagent B at a ratio of 50:1 thoroughly. The BCA working reagent was freshly prepared for use at room temperature with a stable period of 24 h. […] (5) The absorbance of the protein (at a wavelength of 540 nm) was determined by a microplate reader. (6) The standard curve was made by Excel, and the concentration of the detected protein was calculated based on the standard curve. […]

Series [1] concerns APP/PS1 double transgenic AD model mice. The experiment in a line: Safety observations during repeated administration in the behavioral experiment. It counts as in vivo. The note with it: for Organ index of heart, liver, spleen and kidney: repeated administration (3 consecutive months). As for the experimental part:
OAB-14 at a doge of 50, 100 and 200 mg/kg were respectively given to APP/PS1 double transgenic AD model mice aged 8 months by continuous intragastric administration for 14 days or 3 months (to 11 months old, equivalent to the middle- and late-aged AD), using donepezil as a positive control.

Series [2] concerns Human cutaneous T-cell lymphoma Hut102 cells. The experiment in a line: MTT assay, proliferation of human cutaneous T-cell lymphoma Hut102 cells. Format: cell-based. Particulars: HuT-102, 10 μM, Mean ± SE, read-out: Inhibitive rate (%) against Hut102 cells. Here is the method:
The survival rate of cells was determined by MTT assay, which is based on the metabolic reduction of 3-(4,5-dimethyl-2thiahiazoyl)-3,5-di-phenyl-tetrazolium bromide (MTT) by viable cells. MTT is a yellow compound, a dye that accepts hydrogen ion, which can act on the respiratory chain in the mitochondria of viable cells. Under the action of succinate dehydrogenase and cytochrome C, the tetrazolium ring was cleaved to form blue Formazan crystals, and the amount of Formazan crystals generated was only proportional to the number of the viable cells. The enzymes disappeared in dead cells, so Formazan crystals could not be dissolved in MTT solution containing 20% sodium dodecyl sulfate (pH 4.7).
The cells in the logarithmic growth phase were selected and adjusted to an appropriate cell density, seeded in a 96-well plate, 100 μl/well, and cultured in a 37° C., 5% CO2 incubator. The cells were allowed to adhere overnight, then the culture medium was replaced and the drug was added to cultivate for 48 h. A blank control group, a drug administration group and a positive control group were set, with four repeats in each group.
After 48 h of drug treatment, the cells were incubated with 0.25 mg/ml MTT at 37° C. for 3-4 h, and 100 μl of dimethyl sulfoxide (DMSO) was added to each well after aspirating the culture solution.
Background: Tetrazolium assays rely on reduction of a dye to a coloured formazan, in cell work by metabolically active cells.

As for `CC1(C)CCC(C)(C)c2c1cc1c(c2NC(=O)c2ccc(NC(=O)NCCN)cc2)C(C)(C)CCC1(C)C` [OAB-14, 1-(2-amino) ethyl-3-{4-[(1,1,4,4,5,5,8,8-octamethyl-1,2,3,4,5,6,7,8-octahydro-9-anthryl)carbamoyl]phenyl} urea], the “Expression of synaptic-related proteins SYP, PSD95 and GAP43” value with SYP, PSD95 and GAP43 (100 mg/kg group) is recorded as “significantly increased”; with SYP, PSD95 and GAP43 (200 mg/kg group), “significantly increased”. Also, the “Changes in the main organ tissue sections compared with the blank group” value in series [1] (14 days or 3 months) is listed as “no changes were observed”. Moreover, in series [1] (low, medium and high dose, 3 consecutive months), the “General condition of the mice” value is on record as “in good condition”. Also, the “Organ index of heart, liver, spleen and kidney” value in series [1] (low, medium and high dose) was “not abnormal”; in series [1] (low, medium and high dose, listed as OAR-14), “not seen to be abnormal”. Besides, the inhibition at 10 µM in series [2] was determined as 41.2 ± 1.08%.

Source of the values: patent publication US10399931B2, “Octahydroanthracene compound, preparation method and application thereof” (SHANDONG XINHUA PHARMACEUTICAL CO., LTD., priority 2016, dated 2019).
